# Assay results as given in publication PMC6560451, “Occurrence and Function of the Na^+-Translocating NADH:Quinone Oxidoreductase in Prevotella spp” (Microorganisms, 2019).
# Molecular target: T1, NqrB and NqrC subunits of P. bryantii B14 (Segatella baroniae, UniProt D8DWB9+D8DWC0)
# T1 sequence (D8DWC0 1-385): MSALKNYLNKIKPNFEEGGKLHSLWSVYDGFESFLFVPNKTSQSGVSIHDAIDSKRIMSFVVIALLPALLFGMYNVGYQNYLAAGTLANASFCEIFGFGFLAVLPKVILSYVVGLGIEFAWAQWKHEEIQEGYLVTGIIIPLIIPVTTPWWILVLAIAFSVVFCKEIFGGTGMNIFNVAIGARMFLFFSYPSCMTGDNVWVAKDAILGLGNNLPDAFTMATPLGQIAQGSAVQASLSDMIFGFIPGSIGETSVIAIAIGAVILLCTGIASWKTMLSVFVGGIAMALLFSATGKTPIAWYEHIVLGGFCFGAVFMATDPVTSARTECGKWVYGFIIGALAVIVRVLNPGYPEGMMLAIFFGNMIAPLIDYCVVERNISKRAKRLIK
# T1 sequence (D8DWB9 1-210): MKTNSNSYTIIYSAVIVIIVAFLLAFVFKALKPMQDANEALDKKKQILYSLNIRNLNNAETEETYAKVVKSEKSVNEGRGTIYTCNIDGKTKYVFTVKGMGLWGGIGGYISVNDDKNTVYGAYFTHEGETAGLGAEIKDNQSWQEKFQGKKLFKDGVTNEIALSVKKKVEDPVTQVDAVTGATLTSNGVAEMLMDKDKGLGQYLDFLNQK
# Assay: in-gel fluorescence after SDS-PAGE (excitation […] nm)
# Type: biochemical
smiles,measurement,value
Cc1cc2nc3c(=O)[nH]c(=O)nc-3n(C[C@H](O)[C@H](O)[C@H](O)COP(=O)(O)O)c2cc1C [flavin mononucleotide],in-gel fluorescence after SDS-PAGE (excitation 460 nm),verified by in-gel fluorescence detection of covalently bound FMN chromophores
